Measured values published in paper PMC10165273, “Itch receptor MRGPRX4 interacts with the receptor activity–modifying proteins” (The Journal of Biological Chemistry, 2023).
Read-outs that look alike come from different tables or passages of the source.

Target: T1, MRGPRX4 (Homo sapiens, UniProt Q96LA9)
T1 construct: expressed in transfected cells; host or cells: HEK293T
Test: IP1 accumulation HTRF assay, MRGPRX4;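 on IP1 accumulation, dose-response (Figure 1a): 0% is unstimulated mock-transfected cells and 100% is fully stimulated MRGPRX4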
Format: cell-based
Settings: 2 h; for activation at 16 µM: log [agonist] (M) -4.79588; for activation at 3.2 µM: log [agonist] (M) -5.49485; for activation at 0.64 µM: log [agonist] (M) -6.19382; for activation at 0.128 µM: log [agonist] (M) -6.89279; for activation at 0.0256 µM: log [agonist] (M) -7.59176

[1] = SP-FLAG-Nluc-HT7-MRGX4_Tet-GFP10-1D4, read-out: normalized IP1 accumulation
[2] = SP-FLAG-Nluc-HT7-MRGX4_Tet-GFP10-1D4 no dox, read-out: normalized IP1 accumulation

T1 sequence (Q96LA9 whole entry): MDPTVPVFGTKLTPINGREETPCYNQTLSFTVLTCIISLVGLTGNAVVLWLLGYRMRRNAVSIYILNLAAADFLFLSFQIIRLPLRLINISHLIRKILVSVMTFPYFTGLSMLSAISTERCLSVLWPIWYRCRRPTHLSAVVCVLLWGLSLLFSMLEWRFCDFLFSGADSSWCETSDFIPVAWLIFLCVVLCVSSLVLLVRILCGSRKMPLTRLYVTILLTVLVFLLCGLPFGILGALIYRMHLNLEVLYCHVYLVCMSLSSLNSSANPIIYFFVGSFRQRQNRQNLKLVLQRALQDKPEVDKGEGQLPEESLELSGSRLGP

SMILES: CC(C)[C@H]1CC[C@H](C(=O)N[C@H](Cc2ccccc2)C(=O)O)CC1 [Nateglinide]
- activation at 100 µM (HA-MRGX4-1D4, log [agonist] (M) -4, read-out: normalized IP1 accumulation): 84.6%
- activation at 20 µM (HA-MRGX4-1D4, log [agonist] (M) -4.69897, read-out: normalized IP1 accumulation): 63.4%
- activation at 4 µM (HA-MRGX4-1D4, log [agonist] (M) -5.39794, read-out: normalized IP1 accumulation): 30.8%
- activation at 0.8 µM (HA-MRGX4-1D4, log [agonist] (M) -6.09691, read-out: normalized IP1 accumulation): 17.7%
- activation at […] (HA-MRGX4-1D4, log [agonist] (M) -6.79588, read-out: normalized IP1 accumulation): 12.4%
- activation at 0.032 µM (HA-MRGX4-1D4, log [agonist] (M) -7.49485, read-out: normalized IP1 accumulation): 12.5%
- activation at 100 µM (MRGPRX4: 0.25pg/cell, log [Nateglinide] (M) -4, Fig S1b, read-out: IP1 accumulation): 76.9%
- activation at 20 µM (MRGPRX4: 0.25pg/cell, log [Nateglinide] (M) -4.69897, Fig S1b, read-out: IP1 accumulation): 53.7%
- activation at 4 µM (MRGPRX4: 0.25pg/cell, log [Nateglinide] (M) -5.39794, Fig S1b, read-out: IP1 accumulation): 21.2%
- activation at […] (MRGPRX4: 0.25pg/cell, log [Nateglinide] (M) -6.79588, Fig S1b, read-out: IP1 accumulation): 3.43%
- activation at 0.032 µM (MRGPRX4: 0.25pg/cell, log [Nateglinide] (M) -7.49485, Fig S1b, read-out: IP1 accumulation): 3.78%
- activation at 100 µM (MRGPRX4: 0.5pg/cell, log [Nateglinide] (M) -4, Fig S1b, read-out: IP1 accumulation): 92.5%
- activation at 20 µM (MRGPRX4: 0.5pg/cell, log [Nateglinide] (M) -4.69897, Fig S1b, read-out: IP1 accumulation): 65.9%
- activation at 4 µM (MRGPRX4: 0.5pg/cell, log [Nateglinide] (M) -5.39794, Fig S1b, read-out: IP1 accumulation): 33%
- activation at 0.8 µM (MRGPRX4: 0.5pg/cell, log [Nateglinide] (M) -6.09691, Fig S1b, read-out: IP1 accumulation): 11.8%
- activation at […] (MRGPRX4: 0.5pg/cell, log [Nateglinide] (M) -6.79588, Fig S1b, read-out: IP1 accumulation): 6.22%
- activation at 0.032 µM (MRGPRX4: 0.5pg/cell, log [Nateglinide] (M) -7.49485, Fig S1b, read-out: IP1 accumulation): 5.53%
- activation at 100 µM (MRGPRX4: 1pg/cell, log [Nateglinide] (M) -4, Fig S1b, read-out: IP1 accumulation): 92.1%
- activation at 20 µM (MRGPRX4: 1pg/cell, log [Nateglinide] (M) -4.69897, Fig S1b, read-out: IP1 accumulation): 75.4%
- activation at 4 µM (MRGPRX4: 1pg/cell, log [Nateglinide] (M) -5.39794, Fig S1b, read-out: IP1 accumulation): 37.9%
- activation at 0.8 µM (MRGPRX4: 1pg/cell, log [Nateglinide] (M) -6.09691, Fig S1b, read-out: IP1 accumulation): 17.7%
- activation at […] (MRGPRX4: 1pg/cell, log [Nateglinide] (M) -6.79588, Fig S1b, read-out: IP1 accumulation): 11.7%
- activation at 0.032 µM (MRGPRX4: 1pg/cell, log [Nateglinide] (M) -7.49485, Fig S1b, read-out: IP1 accumulation): 9.46%
- activation at 100 µM (MRGPRX4: 2pg/cell, log [Nateglinide] (M) -4, Fig S1b/c, read-out: IP1 accumulation): 100%
- activation at 20 µM (MRGPRX4: 2pg/cell, log [Nateglinide] (M) -4.69897, Fig S1b/c, read-out: IP1 accumulation): 88.5%
- activation at 4 µM (MRGPRX4: 2pg/cell, log [Nateglinide] (M) -5.39794, Fig S1b/c, read-out: IP1 accumulation): 44.1%
- activation at 0.8 µM (MRGPRX4: 2pg/cell, log [Nateglinide] (M) -6.09691, Fig S1b/c, read-out: IP1 accumulation): 21.4%
- activation at […] (MRGPRX4: 2pg/cell, log [Nateglinide] (M) -6.79588, Fig S1b/c, read-out: IP1 accumulation): 13.8%
- activation at 0.032 µM (MRGPRX4: 2pg/cell, log [Nateglinide] (M) -7.49485, Fig S1b/c, read-out: IP1 accumulation): 12.6%
- activation at 100 µM (MRGPRX4: […], log [Nateglinide] (M) -4, Fig S1b, read-out: IP1 accumulation): 68.7%
- activation at 20 µM (MRGPRX4: […], log [Nateglinide] (M) -4.69897, Fig S1b, read-out: IP1 accumulation): 45%
- activation at 4 µM (MRGPRX4: […], log [Nateglinide] (M) -5.39794, Fig S1b, read-out: IP1 accumulation): 17.6%
- activation at 0.8 µM (MRGPRX4: […], log [Nateglinide] (M) -6.09691, Fig S1b, read-out: IP1 accumulation): 5.45%
- activation at 0.032 µM (MRGPRX4: […], log [Nateglinide] (M) -7.49485, Fig S1b, read-out: IP1 accumulation): 2.09%
- activation at 30 µM (MRGPRX4, nateglinide 30uM, Fig S1d): 86.4%
- activation at 100 µM (MRGPRX4, nateglinide 100uM, Fig S1d, read-out: IP1 accumulation): 100%
- activation at 100 µM (MRGPRX4 alone, log [Nateglinide] (M) -4, Fig S3a-c, read-out: IP1 accumulation): 100%
- activation at 20 µM (MRGPRX4 alone, log [Nateglinide] (M) -4.69897, Fig S3a-c, read-out: IP1 accumulation): 85.7%
- activation at 4 µM (MRGPRX4 alone, log [Nateglinide] (M) -5.39794, Fig S3a-c, read-out: IP1 accumulation): 46.2%
- activation at 0.8 µM (MRGPRX4 alone, log [Nateglinide] (M) -6.09691, Fig S3a-c, read-out: IP1 accumulation): 23%
- activation at […] (MRGPRX4 alone, log [Nateglinide] (M) -6.79588, Fig S3a-c, read-out: IP1 accumulation): 17.8%
- activation at 0.032 µM (MRGPRX4 alone, log [Nateglinide] (M) -7.49485, Fig S3a-c, read-out: IP1 accumulation): 17.4%
- activation at 30 µM (MRGX4 + Ng, 30uM, U73122 30uM, Fig S1e): 21.3%
- activation at 30 µM (MRGX4 + Ng, 30uM, buffer, Fig S1e): 84.5%
- activation at 100 µM (MRGX4 + Ng, 100uM, U73122 30uM, Fig S1e, read-out: IP1 accumulation): 31%
- activation at 100 µM (MRGX4 + Ng, 100uM, buffer, Fig S1e, read-out: IP1 accumulation): 100%
- activation at 80 µM (SP-FLAG-Nluc-HT7-MRGX4_Tet-GFP10-1D4, log [agonist] (M) -4.09691, read-out: normalized IP1 accumulation): 49.1%
- activation at 16 µM [1]: 42%
- activation at 3.2 µM [1]: 23.5%
- activation at 0.64 µM [1]: 12.9%
- activation at 0.128 µM [1]: 10.3%
- activation at 0.0256 µM [1]: 9.54%
- activation at 16 µM [2]: 10.5%
- activation at 3.2 µM [2]: 7.88%
- activation at 0.64 µM [2]: 7.83%
- activation at 0.128 µM [2]: 7.62%
- activation at 0.0256 µM [2]: 8.15%
- activation at 100 µM (SP-Flag-MRGX4-1D4, log [agonist] (M) -4, read-out: normalized IP1 accumulation): 85.6%
- activation at 20 µM (SP-Flag-MRGX4-1D4, log [agonist] (M) -4.69897, read-out: normalized IP1 accumulation): 66.9%
- activation at 4 µM (SP-Flag-MRGX4-1D4, log [agonist] (M) -5.39794, read-out: normalized IP1 accumulation): 28.3%
- activation at 0.8 µM (SP-Flag-MRGX4-1D4, log [agonist] (M) -6.09691, read-out: normalized IP1 accumulation): 11.8%
- activation at […] (SP-Flag-MRGX4-1D4, log [agonist] (M) -6.79588, read-out: normalized IP1 accumulation): 7.74%
- activation at 0.032 µM (SP-Flag-MRGX4-1D4, log [agonist] (M) -7.49485, read-out: normalized IP1 accumulation): 8.22%
- activation at 100 µM (SP-Flag-MRGX4-GFP10-1D4, log [agonist] (M) -4, read-out: normalized IP1 accumulation): 100%
- activation at 20 µM (SP-Flag-MRGX4-GFP10-1D4, log [agonist] (M) -4.69897, read-out: normalized IP1 accumulation): 74%
- activation at 4 µM (SP-Flag-MRGX4-GFP10-1D4, log [agonist] (M) -5.39794, read-out: normalized IP1 accumulation): 34.7%
- activation at 0.8 µM (SP-Flag-MRGX4-GFP10-1D4, log [agonist] (M) -6.09691, read-out: normalized IP1 accumulation): 13.4%
- activation at […] (SP-Flag-MRGX4-GFP10-1D4, log [agonist] (M) -6.79588, read-out: normalized IP1 accumulation): 8.46%
- activation at 0.032 µM (SP-Flag-MRGX4-GFP10-1D4, log [agonist] (M) -7.49485, read-out: normalized IP1 accumulation): 8.07%
- activation at 3.7037 µM (log [agonist] (M) -5.43136, MRGX4-transfected, individual replicates, read-out: IP1 accumulation, dose-response (Figure 1a)): 40%
- activation at 0.4115 µM (log [agonist] (M) -6.38561, MRGX4-transfected, individual replicates, read-out: IP1 accumulation, dose-response (Figure 1a)): 19.1%
- activation at 100 µM (log [nateglinide] (M) -4, Dox 13 ng/mL, Supplementary Figure 5a, read-out: IP1 accumulation (normalized)): 79.6%
- activation at 100 µM (log [nateglinide] (M) -4, Dox 13 ng/mL, Supplementary Figure 5b, read-out: IP1 accumulation (normalized)): 13.6%
- activation at 100 µM (log [nateglinide] (M) -4, Dox 13 ng/mL, Supplementary Figure 5c, read-out: IP1 accumulation (normalized)): 46.6%
- activation at 100 µM (log [nateglinide] (M) -4, Dox 40 ng/mL, Supplementary Figure 5a, read-out: IP1 accumulation (normalized)): 82.2%
